Test: The antagonist activity measured as inhibition of LTB4 response in aggregation of neutrophils

| IC50 | SMILES |
| --- | --- |
| 513 nM | CCCCCCCCCCOc1ccc2c(=O)c3cc(C(=O)O)ccc3oc2c1CCC(=O)O [5-(2-Carboxy-ethyl)-6-decyloxy-9-oxo-9H-xanthene-2-carboxylic acid] |
| 133 nM | COc1ccc(/C=C/CCCCOc2ccc3c(=O)c4cc(C(=O)O)ccc4oc3c2CCC(=O)O)cc1 [LY-210073] |

— BindingDB's records for doi:10.1021/jm00064a006 (Eli Lilly, 1993)
